Experimental findings from patent US20220089568A1 (Janssen Biotech, Inc., priority 2019, published 2022) are described below.

The target of test [1] is T1, human DHODH (Homo sapiens, UniProt Q02127).
T1 construct: purchased Proteros PR-0044
The test is described as follows: DHODH Enzymatic Assay. It counts as biochemical. Conditions: purified human DHODH; DCIP absorbance, end-point mode. The method, then:
To detect DHODH enzyme activities, dichloroindophenol (DCIP) is added as the final electron acceptor in the assay. DCIP can accept electrons from the reduced coenzyme Q generated in the assay, or from dihydroorotate (DHO) via FMN by binding presumably to the ubiquinone pocket. […] The assay buffer contained […], pH 7.5, 150 mM NaCl, 0.5 mM EDTA, and 0.1% Triton X-100 in MilliQ water. Substrate consisting of 20 mM DHO, 5 mM CoQ6, and 1 mM DCIP in assay buffer, initiates the reaction. […] Absorbance measurements were obtained using the BMG Phera Star plate-reading spectrophotomer. Purified human DHODH was purchased from Proteros (cat. No. PR-0044). Chemicals were purchased from Sigma-Aldrich, Teknova, and Avanti Polar Lipids. Liquid handling was performed using Labcyte Echo and Formulatrix Tempest.

Test [2] has as its system MOLM-13 cells. Briefly: MOLM-13 Cellular Assay. In kind it is cell-based. Conditions: Homo sapiens, 72 hours exposure, cell viability by CellTiter-Glo. The method, then: The day prior to assay set-up, cells were pelleted, resuspended in fresh media, counted, and cells were plated at 0.4×10^6 cell/mL in a T150 flask. […] Cells were exposed to different concentrations of test compounds at 37° C., 5% CO2 for 72 hours immediately after seeding.
In general terms: ATP-based viability assays read luminescence as a measure of living cells.

Bounds are passed on as bounds.

T1 sequence (Q02127 whole entry): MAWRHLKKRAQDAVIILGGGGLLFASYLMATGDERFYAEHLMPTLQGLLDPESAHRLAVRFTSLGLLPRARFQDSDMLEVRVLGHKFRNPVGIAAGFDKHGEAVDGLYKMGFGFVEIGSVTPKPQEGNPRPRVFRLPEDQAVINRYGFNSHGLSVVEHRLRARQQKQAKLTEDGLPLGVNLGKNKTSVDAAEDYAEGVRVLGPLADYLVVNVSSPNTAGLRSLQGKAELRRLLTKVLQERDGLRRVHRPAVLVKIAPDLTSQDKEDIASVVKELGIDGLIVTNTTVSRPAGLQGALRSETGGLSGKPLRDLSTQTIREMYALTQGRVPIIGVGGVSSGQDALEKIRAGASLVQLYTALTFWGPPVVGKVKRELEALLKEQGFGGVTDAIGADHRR

For `CCn1c(CO)nn(-c2nc(O[C@@H](C)C(F)(F)F)c(C(=O)Nc3c(C)cncc3F)cc2F)c1=O` [Example 71, (S)-6-(4-Ethyl-3-(hydroxymethyl)-5-oxo-4,5-dihydro-1H-1,2,4-triazol-1-yl)-5-fluoro-N-(3-fluoro-5-methylpyridin-4-yl)-2-((1,1,1-trifluoropropan-2-yl)oxy)nicotinamide], the EC50 in test [1] was determined as 5.6 nM; in test [2], 21.1 nM.
`CCn1c(CO)nn(-c2nc(O[C@@H](C)C(F)(F)F)c(C(=O)Nc3cc(OC)ncc3F)cc2F)c1=O` [Example 65, (S)-6-(4-Ethyl-3-(hydroxymethyl)-5-oxo-4,5-dihydro-1H-1,2,4-triazol-1-yl)-5-fluoro-N-(5-fluoro-2-methoxypyridin-4-yl)-2-((1,1,1-trifluoropropan-2-yl)oxy)nicotinamide]: the EC50 in test [1] is 202 nM; in test [2], greater than 100 nM.
As for `CCn1c(CO)nn(-c2nc(O[C@@H](C)C(F)(F)F)c(C(=O)Nc3c[nH]nc3OC)cc2F)c1=O` [Example 58, (S)-6-(4-Ethyl-3-(hydroxymethyl)-5-oxo-4,5-dihydro-1H-1,2,4-triazol-1-yl)-5-fluoro-N-(3-methoxy-1H-pyrazol-4-yl)-2-((1,1,1-trifluoropropan-2-yl)oxy)nicotinamide], the half-maximal effective concentration (EC50) amounted to 5.8 nM in test [1] and 23.2 nM in test [2].
As to `CCn1c(CO)nn(-c2nc(O[C@@H](C)C(F)(F)F)c(C(=O)Nc3ncnc(C)c3C)cc2F)c1=O` [Example 43, (S)-N-(5,6-Dimethylpyrimidin-4-yl)-6-(4-ethyl-3-(hydroxymethyl)-5-oxo-4,5-dihydro-1H-1,2,4-triazol-1-yl)-5-fluoro-2-((1,1,1-trifluoropropan-2-yl)oxy)nicotinamide], the EC50 in test [1] is 815 nM; in test [2], greater than 100 nM.
Consider `CCn1c(CO)nn(-c2nc(O[C@@H](C)C(F)(F)F)c(C(=O)Nc3nc(OC)ccc3F)cc2F)c1=O` [Example 56, (S)-6-(4-Ethyl-3-(hydroxymethyl)-5-oxo-4,5-dihydro-1H-1,2,4-triazol-1-yl)-5-fluoro-N-(3-fluoro-6-methoxypyridin-2-yl)-2-((1,1,1-trifluoropropan-2-yl)oxy)nicotinamide], for which the results for the EC50 in test [1] and in test [2] were 4.6 nM and 5.2 nM, respectively.
For the molecule `CCn1c(CF)nn(-c2nc(O[C@@H](C)C(F)(F)F)c(C(=O)Nc3c(C)n[nH]c3Cl)cc2F)c1=O` [Example 96, N-(5-Chloro-3-methyl-1H-pyrazol-4-yl)-6-[4-ethyl-3-(fluoromethyl)-5-oxo-1,2,4-triazol-1-yl]-5-fluoro-2-[(1S)-2,2,2-trifluoro-1-methyl-ethoxy]pyridine-3-carboxamide], the EC50 in test [1] is 0.382 nM; in test [2], 0.32 nM.
Turning to `CCn1c(CF)nn(-c2nc(OC(C)C)c(C(=O)Nc3c(C)n[nH]c3Cl)cc2F)c1=O` [Example 108, N-(5-Chloro-3-methyl-1H-pyrazol-4-yl)-6-[4-ethyl-3-(fluoromethyl)-5-oxo-1,2,4-triazol-1-yl]-5-fluoro-2-isopropoxy-pyridine-3-carboxamide], the concentration for a half-maximal effect (EC50) in test [1] amounted to 0.851 nM; in test [2] it was 0.17 nM.
With `CCn1c(CO)nn(-c2nc(O[C@@H](C)C(F)(F)F)c(C(=O)Nc3c[nH]nc3C(F)(F)F)cc2F)c1=O` [Example 95, 6-[4-Ethyl-3-(hydroxymethyl)-5-oxo-1,2,4-triazol-1-yl]-5-fluoro-2-[(1S)-2,2,2-trifluoro-1-methyl-ethoxy]-N-[3-(trifluoromethyl)-1H-pyrazol-4-yl]pyridine-3-carboxamide], the EC50 in test [1] turned out to be 2.09 nM; in test [2], 1.23 nM.
Take `CCOc1ncc(F)c(NC(=O)c2cc(F)c(-n3nc(CO)n(CC)c3=O)nc2O[C@@H](C)C(F)(F)F)n1` [Example 70, (S)-N-(2-Ethoxy-5-fluoropyrimidin-4-yl)-6-(4-ethyl-3-(hydroxymethyl)-5-oxo-4,5-dihydro-1H-1,2,4-triazol-1-yl)-5-fluoro-2-((1,1,1-trifluoropropan-2-yl)oxy)nicotinamide]: the values for the EC50 in test [1] and in test [2] were 489 nM and greater than 100 nM, respectively.
Regarding `CCn1c(CO)nn(-c2nc(O[C@@H](C)C(F)(F)F)c(C(=O)Nc3c(OC)ncnc3OC)cc2F)c1=O` [Example 94, N-(4,6-Dimethoxypyrimidin-5-yl)-6-[4-ethyl-3-(hydroxymethyl)-5-oxo-1,2,4-triazol-1-yl]-5-fluoro-2-[(1S)-2,2,2-trifluoro-1-methyl-ethoxy]pyridine-3-carboxamide], the results for the 50% effective concentration (EC50) in test [1] and in test [2] were greater than 33 nM and 48 nM, respectively.
As to `CCn1c(CO)nn(-c2nc(O[C@@H](C)C(F)(F)F)c(C(=O)Nc3cc[nH]c(=O)c3Cl)cc2F)c1=O` [Example 20, (S)-N-(3-Chloro-2-oxo-1,2-dihydropyridin-4-yl)-6-(4-ethyl-3-(hydroxymethyl)-5-oxo-4,5-dihydro-1H-1,2,4-triazol-1-yl)-5-fluoro-2-((1,1,1-trifluoropropan-2-yl)oxy)nicotinamide], the EC50 was 4.3 nM in test [1] and 108 nM in test [2].
As to `CCn1c(CO)nn(-c2nc(O[C@@H](C)C(F)(F)F)c(C(=O)Nc3cnccc3Cl)cc2F)c1=O` [Example 27, (S)-N-(4-Chloropyridin-3-yl)-6-(4-ethyl-3-(hydroxymethyl)-5-oxo-4,5-dihydro-1H-1,2,4-triazol-1-yl)-5-fluoro-2-((1,1,1-trifluoropropan-2-yl)oxy)nicotinamide], the EC50 in test [1] came out at 4.7 nM; in test [2], 7.7 nM.
In the case of `CCn1c(CO)nn(-c2nc(O[C@@H](C)C(F)(F)F)c(C(=O)Nc3c(F)cnc(OC)c3Cl)cc2F)c1=O` [Example 30, (S)-N-(3-Chloro-5-fluoro-2-methoxypyridin-4-yl)-6-(4-ethyl-3-(hydroxymethyl)-5-oxo-4,5-dihydro-1H-1,2,4-triazol-1-yl)-5-fluoro-2-((1,1,1-trifluoropropan-2-yl)oxy)nicotinamide], the results for the EC50 in test [1] and in test [2] were 1.2 nM and 1.3 nM, respectively.
Consider `CCn1c(CO)nn(-c2nc(O[C@@H](C)C(F)(F)F)c(C(=O)Nc3c[nH]nc3C)cc2F)c1=O` [Example 57, (S)-6-(4-Ethyl-3-(hydroxymethyl)-5-oxo-4,5-dihydro-1H-1,2,4-triazol-1-yl)-5-fluoro-N-(3-methyl-1H-pyrazol-4-yl)-2-((1,1,1-trifluoropropan-2-yl)oxy)nicotinamide], for which the EC50 in test [1] was found to be 1.7 nM; in test [2] it was 20.2 nM.
With `CCn1c(CO)nn(-c2nc(O[C@@H](C)C(F)(F)F)c(C(=O)Nc3c(Cl)c[nH]c(=O)c3Cl)cc2F)c1=O` [Example 22, (S)-N-(3,5-Dichloro-2-oxo-1H-pyridin-4-yl)-6-[4-ethyl-3-(hydroxymethyl)-5-oxo-1,2,4-triazol-1-yl]-5-fluoro-2-[(1S)-2,2,2-trifluoro-1-methyl-ethoxy]pyridine-3-carboxamide], the results for the concentration giving a half-maximal response (EC50) in test [1] and in test [2] were 1.5 nM and 445 nM, respectively.
Consider `Cc1ccnc(Cl)c1NC(=O)c1cc(F)c(-n2nc(CO)n(C(C)C)c2=O)nc1O[C@@H](C)C(F)(F)F` [Example 89, N-(2-Chloro-4-methyl-3-pyridyl)-5-fluoro-6-[3-(hydroxymethyl)-4-isopropyl-5-oxo-1,2,4-triazol-1-yl]-2-[(1S)-2,2,2-trifluoro-1-methyl-ethoxy]pyridine-3-carboxamide], for which the half-maximal effective concentration (EC50) was found to be 10.7 nM in test [1] and 4.09 nM in test [2].

As usually defined, the EC50 is the concentration giving half of the maximal effect. Lower therefore signals an effect from little substance.
